{"source": "patent US9567641B2", "about": "“Combination therapy for the treatment of cancer using an anti-C-met antibody” (SAMSUNG ELECTRONICS CO., LTD., priority 2013, dated 2017)", "molecules": {"B1": {"name": "scFv of huAbF46: scFv of huAbF46, VH-linker-VL, encoded by SEQ ID NO: 55 (protein)", "scFv": "EVQLVESGGGLVQPGGSLRLSCAASGFTFTDYYMSWVRQAPGKGLEWLGFIRNKANGYTTEYSASVKGRFTISRDNSKNTLYLQMNSLRAEDTAVYYCARDNWFAYWGQGTLVTVSSGLGGLGGGGSGGGGSGGSSGVGSDIQMTQSPSSLSASVGDRVTITCKSSQSLLASGNQNNYLAWHQQKPGKAPKMLIIWASTRVSGVPSRFSGSGSGTDFTLTISSLQPEDFATYYCQQSYSAPLTFGQGTKVEIKR"}}, "key": {"[1]": {"system": "MKN45 gastric cancer cell line", "test": "Cell viability, CellTiter Glo, combination with L3-1Y/IgG2 antibody", "assay_type": "cell-based", "conditions": "ABT-263 5 uM co-treated with L3-1Y/IgG2 0.08 ug/ml, 72 h"}, "[2]": {"system": "MKN45 gastric cancer cell line with acquired resistance against L3-1Y/IgG2 antibody", "test": "Cell viability, CellTiter Glo, resistance-acquired cell line", "assay_type": "cell-based", "conditions": "72 h", "protocol": "To see whether the treatment RAF1 siRNA can overcome resistance acquired due to the repetitive treatment of an antibody, tests were carried out using MKN45 gastric cancer cell line which had been treated by L3-1Y/IgG2 antibody for 3 months or longer and acquired resistance against it. The resistance-acquired MKN45 gastric cancer cell line was prepared as follows: MKN45 cells (JCRB, JCRB0254) were treated with L3-1Y/IgG2 antibody in amounts being increased over 3 months or longer. The amount of L3-1Y/IgG2 antibody to be treated started from its initial treatment concentration of 1 ug/ml and was increased up to 10 ug/ml until resistance occurred. To confirm the acquisition of L3-1Y/IgG2 antibody resistance, the resistance-acquired clones were treated or not treated with L3-1Y/IgG2 antibody and then incubated, followed by CTG assays.\nAs a control group, All Negative control siRNA (Qiagen, cat. no. 1027281) was used, and as a target siRNA, a mixture of two kinds of siRNAs (see Table 7) that had effects during the screening was used. […]\n(§1) 5000 cells of MKN45 cells which have acquired resistance against L3-1Y/IgG2 antibody were seeded onto a 96-well plate, and 24 hours after, the plate was treated with L3-1Y/IgG2 antibody and an ITGB3 inhibitor, cilengitide (Merck KGaA, EMD 121974). 72 hours later after the treatment, a change in the number of cells was measured using CellTiter Glo assay. The MKN45 cells which have acquired resistance against L3-1Y/IgG2 antibody were prepared referring to Example 4.3. Cilengitide was treated at a fixed concentration of 10 uM, and the L3-1Y/IgG2 antibody was treated by ⅕ dilution each time starting from 2 ug/ml. For comparison, the same test was conducted using L3-1Y/IgG2 antibody alone.\nas §1, with “AKT” for “ITGB3”, “MK-2206” for “cilengitide”, “& Co Inc).” for “KGaA, EMD 121974).”, “MK-2206” for “Cilengitide”, “5” for “10”\nTo verify whether or not the resistance acquired by repetitive administration of anti-c-Met antibody can be overcome by BCL2L1 inhibition, L3-1Y/IgG2 antibody resistance acquired MKN45 cells, where the resistance against L3-1Y/IgG2 antibody is acquired by treating MKN45 gastric cancer cells (JCRB, JCRB0254) with the L3-1Y/IgG2 antibody for at least 3 months, were used. The L3-1Y/IgG2 antibody resistance acquired MKN45 gastric cancer cells were prepared referring to Example 4.3. […]"}, "[3]": {"system": "L3-1Y/IgG2 antibody resistance acquired EBC1 lung cancer cells", "test": "Cell viability, CellTiter Glo, resistance-acquired cell line", "assay_type": "cell-based", "conditions": "ABT-263 0.5 uM co-treated with L3-1Y/IgG2 (1/5 dilutions from 2 ug/ml), 72 h", "protocol": "To verify whether or not the resistance acquired by repetitive administration of anti-c-Met antibody can be overcome by BCL2L1 inhibition, L3-1Y/IgG2 antibody resistance acquired EBC1 cells, where the resistance against L3-1Y/IgG2 antibody is acquired by treating EBC1 lung cancer cells (JCRB, JCRB0820) with the L3-1Y/IgG2 antibody for at least 3 months, were used. The L3-1Y/IgG2 antibody resistance acquired EBC1 lung cancer cells were prepared referring to Example 4.3.\n5000 cells of the L3-1Y/IgG2 antibody resistance acquired EBC1 cells were seeded onto a 96-well plate and 24 hours after, the plate was treated with a BCL2 family inhibitor, ABT-263 (Abbott Laboratories) and 72 hours later after the antibody treatment, a change in the number of cells was measured using CellTiter Glo assay. ABT-263 was treated at a fixed concentration of 0.5 uM, and the L3-1Y/IgG2 antibody was treated by ⅕ dilution each time starting from 2 ug/ml."}, "[4]": {"system": "HCC1806 breast cancer cells", "test": "Cell viability, CellTiter Glo, combination with L3-1Y/IgG2 antibody", "assay_type": "cell-based", "conditions": "72 h", "protocol": "The efficacy of the combination administration of ITGB3 siRNA and L3-1Y/IgG2 antibody was examined in a breast cancer cell line on which the anti-c-Met antibody alone has no effects. For this, HCC1806 (ATCC, CRL-2335) and HCC1954 (ATCC, CRL-2338) cells were used.\nAs a control group, All Negative control siRNA (Qiagen, cat. no. 1027281) was used, and as a target siRNA, a mixture of two kinds of siRNAs (see Table 7) that had effects during the screening was used. Transfection was carried out by the same procedures as Example 3.1 and after 24 hours, the cultured cells were treated with L3-1Y/IgG2 antibody at 0 ug/ml, 0.016 ug/ml, 0.08 ug/ml, 0.4 ug/ml, or 2 ug/ml. 72 hours later after the treatment, 100 uL of CellTiter Glo solution (Promega, G7572) was added to each well, which was allowed to stay at a room temperature for 30 min. The number of cells was counted via luminescence signals, which were recorded using Envision 2104 Multi-label Reader (Perkin Elmer).\nTo verify the effect of the combination therapy using ITGB3 inhibitor and anti-c-Met antibody in breast cancer cells on which the anti-c-Met antibody has no effects, HCC1806 (ATCC, CRL-2335) cells were used. The HCC 1806 cells are a cell line known to have high amounts of c-Met.\nas §1, with “HCC1806” for “MKN45”, “cells” for “cells which have acquired resistance against L3-1Y/IgG2 antibody”, “assay.” for “assay. The MKN45 cells which have acquired resistance against L3-1Y/IgG2 antibody were prepared referring to Example 4.3.”\nThe efficacy of combination administration was examined in a breast cancer cell line on which the anti-c-Met antibody has no effects. For this, HCC1806 (ATCC, CRL-2335) cells were used.\n5000 HCC1806 cells were seeded onto a 96-well plate and 24 hours after, the plate was treated with L3-1Y/IgG2 antibody and an AKT inhibitor, MK-2206 (Merck & Co Inc) and 72 hours later after the antibody treatment, a change in the number of cells was measured using CellTiter Glo assay. MK-2206 was treated at a fixed concentration of 10 uM, and the L3-1Y/IgG2 antibody was treated by ⅕ dilution each time starting from 2 ug/ml. For comparison, the same test was conducted using L3-1Y/IgG2 antibody alone."}, "c-Met": {"molecular_target": "c-Met (Homo sapiens, UniProt P08581)", "sequence (P08581 25-1390)": "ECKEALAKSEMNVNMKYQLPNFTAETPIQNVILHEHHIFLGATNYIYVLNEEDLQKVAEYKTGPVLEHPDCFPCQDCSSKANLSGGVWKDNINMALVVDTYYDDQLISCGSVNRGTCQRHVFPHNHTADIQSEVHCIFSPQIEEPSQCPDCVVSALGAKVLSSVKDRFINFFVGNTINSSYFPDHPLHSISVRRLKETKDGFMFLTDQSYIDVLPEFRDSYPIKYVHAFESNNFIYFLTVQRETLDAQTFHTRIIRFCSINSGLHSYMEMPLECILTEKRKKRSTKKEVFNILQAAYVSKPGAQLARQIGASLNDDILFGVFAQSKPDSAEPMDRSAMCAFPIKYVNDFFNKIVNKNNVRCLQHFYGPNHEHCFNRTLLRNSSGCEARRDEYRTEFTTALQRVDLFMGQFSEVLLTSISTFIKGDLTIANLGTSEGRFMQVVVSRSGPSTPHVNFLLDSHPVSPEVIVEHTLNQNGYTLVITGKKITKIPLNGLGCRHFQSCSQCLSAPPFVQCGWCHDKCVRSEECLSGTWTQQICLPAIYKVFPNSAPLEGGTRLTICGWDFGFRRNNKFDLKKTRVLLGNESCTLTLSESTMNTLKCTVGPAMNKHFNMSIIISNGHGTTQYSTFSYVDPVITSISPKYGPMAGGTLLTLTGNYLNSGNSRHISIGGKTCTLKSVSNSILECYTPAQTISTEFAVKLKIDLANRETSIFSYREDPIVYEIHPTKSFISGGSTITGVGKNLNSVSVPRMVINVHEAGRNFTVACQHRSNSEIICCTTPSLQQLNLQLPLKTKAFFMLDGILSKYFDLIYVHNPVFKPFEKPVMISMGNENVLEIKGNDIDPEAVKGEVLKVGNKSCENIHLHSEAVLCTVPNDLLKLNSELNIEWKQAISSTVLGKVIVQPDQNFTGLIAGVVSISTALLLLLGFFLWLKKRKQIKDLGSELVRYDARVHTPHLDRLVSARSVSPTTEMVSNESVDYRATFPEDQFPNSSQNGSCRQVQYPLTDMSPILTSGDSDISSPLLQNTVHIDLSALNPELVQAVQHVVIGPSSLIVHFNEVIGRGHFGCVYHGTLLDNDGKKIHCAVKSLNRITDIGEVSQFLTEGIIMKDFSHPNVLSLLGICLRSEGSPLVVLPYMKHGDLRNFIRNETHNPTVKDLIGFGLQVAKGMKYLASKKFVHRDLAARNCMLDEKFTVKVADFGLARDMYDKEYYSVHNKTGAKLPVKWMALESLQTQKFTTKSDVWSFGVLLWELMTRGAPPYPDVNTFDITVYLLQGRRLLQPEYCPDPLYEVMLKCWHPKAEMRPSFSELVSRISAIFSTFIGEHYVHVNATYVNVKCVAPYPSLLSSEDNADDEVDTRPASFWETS", "test": "Affinity / specificity for c-Met", "assay_type": "binding", "conditions": "expressed scFv"}, "[5]": {"conditions": "cilengitide 10 uM co-treated with L3-1Y/IgG2 (1/5 dilutions from 2 ug/ml)"}}, "data": [{"molecule": "CC1(C)CCC(c2ccc(Cl)cc2)=C(CN2CCN(c3ccc(C(=O)NS(=O)(=O)c4ccc(N[C@H](CCN5CCOCC5)CSc5ccccc5)c(S(=O)(=O)C(F)(F)F)c4)cc3)CC2)C1", "note": "[ABT-263, 4-[4-[[2-(4-Chlorophenyl)-5,5-dimethyl-1-cyclohexen-1-yl]methyl]-1-piperazinyl]-N-[[4-[[(1R)-3-(4-morpholinyl)-1-[(phenylthio)methyl]propyl]amino]-3-[(trifluoromethyl)sulfonyl]phenyl]sulfonyl]benzamide]", "values": [{"measurement": "growth inhibitory effect (cell viability)", "setting": "[1]", "value": "increased compared to the case that the L3-1Y/IgG2 antibody was treated alone"}, {"measurement": "cancer cell growth inhibitory effect (cell viability)", "setting": "[2]; ABT-263 2.5 uM co-treated with L3-1Y/IgG2 (1/5 dilutions from 2 ug/ml)", "value": "can be achieved"}, {"measurement": "cancer cell growth inhibitory effect (cell viability)", "setting": "[3]", "value": "can be achieved"}]}, {"molecule": "NC1(c2ccc(-c3nc4ccn5c(=O)[nH]nc5c4cc3-c3ccccc3)cc2)CCC1", "note": "[MK-2206, 8-(4-(1-aminocyclobutyl)phenyl)-9-phenyl-[1,2,4]triazolo[3,4-f][1,6]naphthyridin-3(2H)-one, reference compound]", "values": [{"measurement": "growth inhibitory effect (cell viability)", "setting": "[2]; MK-2206 5 uM co-treated with L3-1Y/IgG2 (1/5 dilutions from 2 ug/ml)", "value": "exhibited"}, {"measurement": "cancer cell growth inhibitory efficacy (cell viability)", "setting": "[4]; MK-2206 10 uM co-treated with L3-1Y/IgG2 (1/5 dilutions from 2 ug/ml)", "value": "exhibited"}]}, {"molecule": "CC(C)[C@H]1C(=O)N[C@@H](CCCNC(=N)N)C(=O)NCC(=O)N[C@@H](CC(=O)O)C(=O)N[C@H](Cc2ccccc2)C(=O)N1C", "note": "[cilengitide, Cyclo(L-arginylglycyl-L-α-aspartyl-D-phenylalanyl-N-methyl-L-valyl), reference compound]", "values": [{"measurement": "growth inhibitory effect (cell viability)", "setting": "[2]; [5]", "value": "exhibited"}, {"measurement": "growth inhibitory effect (cell viability)", "setting": "[4]; [5]", "value": "exhibited"}]}, {"molecule": "B1", "values": [{"measurement": "specificity to c-Met", "setting": "c-Met", "value": "specificity to c-Met"}]}]}
